In PMC6814236, “Monitoring and characterizing soluble and membrane-bound ectonucleotidases CD73 and CD39” (PLoS ONE, 2019):

Tests used:
[1] = tested on: Adenosine 5'-Triphosphatase from porcine cerebral cortex (Na+/K+-ATPase)
Description: (§1) Enzyme tested are protein serine/threonine/tyrosine, lipid, sugar, and inorganic kinases, and K/Na ATPase. […] PKA, protein kinase A (solid circle), PKCα (solid square), Src, protein tyrosine Src kinase (solid triangle), Acka, acetate kinase from Escherichia coli (solid reverse triangle), HK, hexokinase from Saccharomyces cerevisiae (solid circle), PI3αKinase, p110α/p85α (square), K/K ATPase, Adenosine 5´-Triphosphatase from porcine cerebral cortex (circle), CD39 (ATP substrate, triangle), and CD39 (ADP substrate, reverse triangle); for CD73 (triangle) in panel B. Each point represents average of a typical experiment done in triplicates; results shown are mean ± SD.

[2] = target: T1, Recombinant Human 5'-Nucleotidase/CD73 (Homo sapiens, UniProt P21589); assay: Enzyme activity of purified CD73 (AMP-Glo assay); format: biochemical; settings: for IC50: 0.1 ng CD73, 5min at 23°C
T1 construct: purchased R&D Systems
T1 sequence (P21589 27-574): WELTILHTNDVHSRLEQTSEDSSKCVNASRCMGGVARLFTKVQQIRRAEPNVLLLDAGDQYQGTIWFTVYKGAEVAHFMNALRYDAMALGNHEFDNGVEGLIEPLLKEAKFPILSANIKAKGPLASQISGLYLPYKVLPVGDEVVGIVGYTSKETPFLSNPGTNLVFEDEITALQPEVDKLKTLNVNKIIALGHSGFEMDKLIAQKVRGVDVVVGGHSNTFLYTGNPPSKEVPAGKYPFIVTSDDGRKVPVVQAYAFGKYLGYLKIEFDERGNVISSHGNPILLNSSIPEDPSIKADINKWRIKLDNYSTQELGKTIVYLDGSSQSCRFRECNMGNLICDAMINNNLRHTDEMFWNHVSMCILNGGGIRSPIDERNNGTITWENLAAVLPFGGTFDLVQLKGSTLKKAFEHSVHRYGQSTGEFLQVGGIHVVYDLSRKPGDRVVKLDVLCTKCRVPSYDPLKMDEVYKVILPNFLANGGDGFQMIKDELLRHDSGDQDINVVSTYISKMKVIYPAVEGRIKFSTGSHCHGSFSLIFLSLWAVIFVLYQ
Description: • Determination of enzyme activity of purified CD73. In a 25 μl reaction buffer (10mM HEPES, pH 7.4, 2mM MgCl2, 1mM CaCl2, and 0.1mg/ml BSA) containing enzyme and AMP substrate at 1μM to 10μM (96-well format), enzyme activity was performed at 23°C for specified time period and terminated by the addition of equal volume (25μl) of AMP-Glo™ Reagent I containing 50 μM (final concentration) of known CD73 inhibitor, such as AMPCP. Reactions were mixed well and incubated for additional 30 min at 23°C. This was followed by the addition of 50 μl of AMP Detection Solution (10μl of AMP-Glo™ Reagent II per ml of Kinase-Glo® One Solution) and incubated for additional 60 min at 23°C before reading luminescence.

CD39 (His-Tag Human) = target: T2, CD39 (His-Tag Human) (Homo sapiens, UniProt P49961); assay: Enzyme activity of purified CD39 with ATP or ADP as substrate; format: biochemical; settings: for inhibitory effect on purified CD39: 0.1ng CD39, 10 μM ATP or 10 μM ADP, 30min at 37°C
T2 construct: His; purchased R&D Systems
T2 sequence (P49961 1-510): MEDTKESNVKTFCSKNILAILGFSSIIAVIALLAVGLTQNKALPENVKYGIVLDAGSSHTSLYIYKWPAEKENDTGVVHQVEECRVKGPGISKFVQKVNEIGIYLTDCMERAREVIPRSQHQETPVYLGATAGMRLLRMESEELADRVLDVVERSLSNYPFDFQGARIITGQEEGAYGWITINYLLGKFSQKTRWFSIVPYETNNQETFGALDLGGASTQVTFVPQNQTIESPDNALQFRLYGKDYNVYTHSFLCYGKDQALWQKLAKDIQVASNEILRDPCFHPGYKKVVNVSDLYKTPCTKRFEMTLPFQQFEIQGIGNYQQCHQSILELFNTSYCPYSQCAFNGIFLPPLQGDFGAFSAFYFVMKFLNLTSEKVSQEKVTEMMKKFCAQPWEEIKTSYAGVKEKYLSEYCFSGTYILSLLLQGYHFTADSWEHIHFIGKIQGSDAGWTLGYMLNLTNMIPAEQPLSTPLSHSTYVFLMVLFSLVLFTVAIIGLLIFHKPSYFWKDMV
Description: • 2 Determination of enzyme activity of purified cytosolic cN-II. Activity of purified cN-II (Human cytosolic 5'-Nucleotidase) was determined using 25μl reaction buffer (50mM HEPES, pH 7.0, 100mM KCl, 20mM MgCl2, 5mM DTT, 2.5mM dATP, and 0.1mg/ml BSA) containing enzyme and AMP substrate at 10μM (96-well format). Reaction continued at 37°C for 60 minutes or for a certain time period and terminated by the addition of equal volume (25μl) of AMP-Glo™ Reagent I. Reactions were mixed well and incubated for additional 30 min at 23°C. This was followed by the addition of 50 μl of AMP Detection Solution (10μl of AMP-Glo™ Reagent II per ml of Kinase-Glo® One Solution) and incubated for additional 60 min at 23°C before reading luminescence. • 3 Determination of enzyme activity of purified CD39. […] When ATP is used as a substrate, an equal volume of Kinase-Glo® One Solution was added to CD39 reactions and incubated for 15 min before reading luminescence using a luminometer. When ADP is used as a substrate for CD39, after enzyme reaction completion, an equal volume of AMP Detection Solution with a known CD39 known inhibitor, such as POM 1 at 50μM final concentration was added. Reactions were mixed well and incubated for 60min before reading luminescence using luminometer. For enzyme dilution, reaction buffer can be used for dilution of enzymes.

PI3αKinase, p110α/p85α = tested on: T3, PI3αKinase, p110α/p85α; assay: Inhibitor specificity against other enzymes: PI3Kα; format: biochemical
T3 construct: purchased Promega
Description: as §1

PKA, protein kinase A = tested on: T4, PKA, protein kinase A; assay: Inhibitor specificity against other enzymes: PKA; format: biochemical
T4 construct: purchased Promega
Description: as §1

PKCα = tested on: T5, PKCα; assay: Inhibitor specificity against other enzymes: PKCα; format: biochemical
T5 construct: purchased Promega
Description: as §1

[3] = tested on: T6, Src, protein tyrosine Src kinase; assay: Inhibitor specificity against other enzymes: Src; format: biochemical
T6 construct: purchased Promega
Description: as §1

Acka, acetate kinase = tested on: T7, Acka, acetate kinase; assay: Inhibitor specificity against other enzymes: acetate kinase; format: biochemical, Escherichia coli
T7 construct: purchased Millipore Sigma
Description: as §1

HK, hexokinase = assay: Inhibitor specificity against other enzymes: hexokinase; format: biochemical, Saccharomyces cerevisiae
Description: as §1

SMILES: Nc1ncnc2c1ncn2[C@@H]1O[C@H](COP(=O)(O)CP(=O)(O)O)[C@@H](O)[C@H]1O [AMP-CP, Adenosine 5'-(α, β-methylene) diphosphate]
- inhibition of K+/Na+-ATPase [1]: no inhibition
- IC50 ([2]; 5 μM AMP): 157 nM
- IC50 ([2]; 10 μM AMP): 300 nM
- inhibitory effect on purified CD39 (CD39 (His-Tag Human)): no inhibitory effect
- inhibition of PI3Kα (PI3αKinase, p110α/p85α): no inhibition
- inhibition of PKA (PKA, protein kinase A): minimal inhibition
- inhibition of PKCα (PKCα): no inhibition
- inhibition of Src [3]: no inhibition
- inhibition of acetate kinase (Acka, acetate kinase): no inhibition
- inhibition of hexokinase (HK, hexokinase): no inhibition

SMILES: [Na+].[Na+].[Na+].[Na+].[Na+].[Na+].[O]=[W](=[O])([O-])[O-].[O]=[W](=[O])([O-])[O-].[O]=[W](=[O])([O-])[O-].[O]=[W](=[O])=[O].[O]=[W](=[O])=[O].[O]=[W](=[O])=[O].[O]=[W](=[O])=[O].[O]=[W](=[O])=[O].[O]=[W](=[O])=[O].[O]=[W](=[O])=[O].[O]=[W](=[O])=[O].[O]=[W](=[O])=[O] [POM1, Sodium metatungstate]
- inhibition of K+/Na+-ATPase [1]: inhibited
- effect on CD73 enzyme activity ([2]; purified CD73, 0.1ng, 1μM AMP, 5 min at 23°C (Fig 6)): no effect
- inhibitory effect on purified CD39 (CD39 (His-Tag Human)): inhibited
- IC50 (CD39 (His-Tag Human); 10 μM ADP as substrate, 0.1 ng enzyme): 3.7 µM
- inhibition of PI3Kα (PI3αKinase, p110α/p85α): inhibited
- inhibition of PKA (PKA, protein kinase A): inhibited
- inhibition of PKCα (PKCα): inhibited
- inhibition of Src [3]: inhibited
- inhibition of acetate kinase (Acka, acetate kinase): inhibited
- inhibition of hexokinase (HK, hexokinase): inhibited
